Results from EP4737448A1, “SARM1 ENZYME ACTIVITY INHIBITOR AND USE THEREOF” (Artivila (ShenZhen) Innovation Center, Ltd., priority 2023, dated 2025).

Legend:
[1] = tested on: axons of dorsal root ganglia explants; assay: Wallerian degeneration assay of axon in mouse DRG explant culture; format: cell-based, C57BL/6 mice; settings: 10 µM compound, 2 h pretreatment, 24 h post axonal transection
Experimental: Dorsal root ganglia were dissected from two-month-old male C57BL/6 mice and placed into a 35-mm culture dish containing ice-cold HBSS buffer. Extra tissue surrounding each dorsal ganglion was removed using a scalpel, and the ganglia were cut into 2-3 explant pieces. These explants were seeded into wells of a 96-well plate pre-coated with 100 ng/mL Matrigel (Corning), added with 100 µL of DRG medium (Neurobasal medium (Gibco) containing 2% B-27 (Gibco), 1% GlutaMAX (Gibco) and 10 ng/mL NGF (MCE)), and cultured in a 37°C incubator for one week. The medium was half- replaced on the fourth day and the experiments were counted on the eighth day.
Refer to methods reported in literatures in the related art (Gerdts J, Sasaki Y, Vohra B, Marasa J, Milbrandt J. Image-based screening identifies novel roles for IkappaB kinase and glycogen synthase kinase 3 in axonal degeneration. J Biol Chem. 2011 Aug 12;286(32):28011-8) for the definition and measurement principle of the degeneration index of axon. In the present disclosure, the measurement method is detaild below.
0.1 µL of 10 mM compound to be tested was added to 100 µL of DRG medium to prepare a new medium containing 10 µM compound to be tested. The medium in the 96-well plate was removed and replaced with the new medium containing the compound to be tested. Explant pieces of dorsal ganglia were incubated with compounds in a 37°C incubator for 2 h of pre-protection. Following this 2-hour pretreatment, axons were transcted near the explants tissue piece using a glass microelectrode. At 0 h and 24 h post axonal transection, brightfield images of axons in the same region were captured using a microscope (Olympus) with 20× objective. Axonal integrity was assessed using an in-house developed script. The results were categorized based on the degree of protection into: (A) >50% and (B) 20-50%.

[2] = molecular target: T1, SARM1 (Homo sapiens, UniProt Q6SZW1); assay: In vitro biochemical assay for inhibiting SARM1 enzymatic activity (PC6 fluorescence, NAD substrate, NMN activator); settings: 0.05 µg/mL SARM1, 50 µM NAD, 50 µM PC6, 50 µM NMN, 10 min pre-incubation, 30 min at room temperature
T1 construct: the inventor produces full-length SARM1 for NADase activity assays and for screening; His (C); made in house; host or cells: HEK293 cells (transient transfection; digitonin lysate supernatant, not purified further)
T1 sequence (Q6SZW1 28-724): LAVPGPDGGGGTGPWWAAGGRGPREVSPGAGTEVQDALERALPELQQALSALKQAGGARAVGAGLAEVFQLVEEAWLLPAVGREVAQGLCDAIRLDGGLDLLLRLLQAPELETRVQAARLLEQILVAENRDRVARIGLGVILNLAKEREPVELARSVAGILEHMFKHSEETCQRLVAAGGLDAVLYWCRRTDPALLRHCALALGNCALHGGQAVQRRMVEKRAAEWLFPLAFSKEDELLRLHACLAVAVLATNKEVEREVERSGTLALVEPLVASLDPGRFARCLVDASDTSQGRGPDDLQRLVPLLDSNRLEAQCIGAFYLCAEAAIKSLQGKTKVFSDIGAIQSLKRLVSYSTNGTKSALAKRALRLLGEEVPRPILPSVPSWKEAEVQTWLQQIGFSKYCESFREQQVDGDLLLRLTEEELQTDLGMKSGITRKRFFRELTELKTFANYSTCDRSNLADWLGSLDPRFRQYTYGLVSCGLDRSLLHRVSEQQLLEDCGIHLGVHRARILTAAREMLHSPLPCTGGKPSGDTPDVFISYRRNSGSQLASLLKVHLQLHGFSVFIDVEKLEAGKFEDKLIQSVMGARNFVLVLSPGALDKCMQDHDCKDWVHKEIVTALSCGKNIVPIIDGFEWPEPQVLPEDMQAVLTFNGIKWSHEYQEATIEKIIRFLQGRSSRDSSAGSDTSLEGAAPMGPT
Experimental: Compounds to be tested were stocked at 200 µM or 10 mM (in DMSO), and further diluted to the desired compound concentration for the in vitro SARM1 enzyme assay and inhibitor screening.
The gene sequence encoding SARM1 protein was amplified by PCR and the PCR amplification product was constructed into the pcDNA3.1-HIS-C plasmid. This construction was completed by YouBio Biological Technology (Hunan, China).
HEK293 cells were cultured in DMEM in a 10 cm dish. The next day, cells were transfected with 15 µg of the pcDNA3.1-SARM1-HIS-C expression plasmid.
Cells were harvested 48 hours after the transfection. The SARM1 protein expressed in cells was obtained through cell lysis by digitonin, which was used for in vitro activity assay. The specific process was as follows:
Cells were digested and detached from the dish using trypsin-EDTA, centrifuged at 1000 rpm for 5 minutes, washed once with PBS, then resuspended in PBS containing 100 µM digitonin at 0.6 mL PBS for the cells in 10 cm dish and lysed for 5 min. The cells were added with trypan blue and observed under a microscope. More than 90% of the cells were confirmed to be lysed. The cells were centrifuged at 5000 rpm for 10 min, and the supernatant containing SARM1 protein was collected.
The compound was added into a solution of 50 mM Tris-HCl (pH 7.5) containing 0.05 µg/mL SARM1 to achieve a concentration of 200 µM, and then serially diluted 6 times, where each dilution was carried out by taking half of the previous solution and adding an equal volume of 50 mM Tris-HCl (pH 7.5) containing 0.05 µg/mL SARM1, yielding a set of final concentrations of the compound of either 200, 100, 50, 25, 12.5, 6.25 and 3.125 µM, or 200, 50, 12.5, 3.125, 0.78, 0.195 and 0.049 µM. No inhibitor was added in the control group. All mixtures were incubated at room temperature for 10 min.
Subsequently, 50 µM NAD, 50 µM PC6 as substrate and 50 µM NMN as activator were added to the SARM1 protein incubated with the inhibitor and reacted for 30 min at room temperature. Wherein, the aforementioned concentrations of each component represent their respective final concentrations in the reaction system
During the reaction, the fluorescence spectrum dynamics of PC6 was detected by a microplate reader, with excitation and emission wavelengths set at 390 nm and 520 nm, respectively. The activity of the protein was expressed as the reaction rate and half maximal inhibitory concentration was calculated. The higher the reaction rate, the stronger the protein activity, and the lower the inhibitory efficiency of the compound.
Dose-response curves for inhibition of SARM1 enzymatic activity for NAD by the compounds were plotted using the above method.

SMILES | IC50 [2] [nM] | Degree of protection against axonal Wallerian Degeneration [1]
N#Cc1cc(-c2ccncc2)ccc1N1CCC(Cc2ccc(Cl)cc2)C1=O (stereo not drawn) [Compound 21, 2-(3-(4-chlorobenzyl)-2-pyrrolidinone-1-yl)-5-(pyridin-4-yl)benzonitrile] | 10000 to 30000 | B ((B) 20-50%)
O=C1C(Cc2ccc(Cl)cc2)CCN1c1ccc(-c2ccncc2)nc1 (stereo not drawn) [Compound 7] | 1000 to 10000 | A ((A) >50%)
O=C1C(Cc2cc(F)cc(F)c2)CCN1c1ccc(-c2ccncc2)cc1 (stereo not drawn) [Compound 33, 3-(3,5-difluorobenzyl)-1-(4-(pyridin-4-yl)phenyl)pyrrolidin-2-one] | 1000 to 10000 | A ((A) >50%)
O=C1C(Cc2ccc(F)cc2F)CCN1c1ccc(-c2ccncc2)cc1 (stereo not drawn) [Compound 41, 3-(2,4-difluorobenzyl)-1-(4-(pyridin-4-yl)phenyl)pyrrolidin-2-one] | 1000 to 10000 | B ((B) 20-50%)
[2H]C(c1ccc(Cl)cc1)C1([2H])CCN(c2ccc(-c3ccncc3)cc2)C1=O (stereo not drawn) [Compound 80, 3-((4-chlorophenyl)methyl-deutero)-1-(4-(pyridin-4-yl)phenyl)-3-deutero-pyrrolidin-2-one] | 1000 to 10000 | B ((B) 20-50%)
O=C1C(Cc2cc(F)c(F)c(F)c2)CCN1c1ccc(-c2ccncc2)nn1 (stereo not drawn) [Compound 71] | < 1000 | A ((A) >50%)
O=C1C(Cc2cc(F)c(F)c(F)c2)CCN1c1ccc(-c2ccncc2)cc1 (stereo not drawn) [Compound 72] | < 1000 | A ((A) >50%)
O=C1N(c2ccc(-c3ccncc3)cc2)CCC1(O)Cc1ccc(F)c(F)c1 (stereo not drawn) [Compound 84, 3-(3,4-difluorobenzyl)-3-hydroxy-1-(4-(pyridin-4-yl)phenyl)pyrrolidin-2-one] | 1000 to 10000 | B ((B) 20-50%)

Further lines, with some results ahead:

IC50 [2] [nM] | SMILES | Degree of protection against axonal Wallerian Degeneration [1]
< 1000 | O=C1C(Cc2ccc(Cl)cc2)CCN1c1ccc(-c2ccncc2Cl)cc1 (stereo not drawn) [Compound 34, 3-(4-chlorobenzyl)-1-(4-(3-chloropyridin-4-yl)phenyl)pyrrolidin-2-one] | A ((A) >50%)
< 1000 | O=C1C(Cc2ccc(Cl)s2)CCN1c1ccc(-c2ccncc2)cc1 (stereo not drawn) [Compound 29, 3-((5-chlorothiophen-2-yl)methyl)-1-(4-(pyridin-4-yl)phenyl)pyrrolidin-2-one] | A ((A) >50%)
< 1000 | O=C1C(Cc2ccc(Cl)s2)CCN1c1ccc(-c2ccncc2)nn1 (stereo not drawn) [Compound 66] | A ((A) >50%)
< 1000 | O=C1N(Cc2ccc(Cl)cc2)CCN1c1ccc(-c2ccncc2)nn1 [Compound 59, 1-(4-chlorobenzyl)-3-(6-(pyridin-4-yl)pyridazin-3-yl)imidazolidin-2-one] | B ((B) 20-50%)
< 1000 | O=C1C(Cc2ccc(Cl)cc2)CCN1c1ccc(-c2ccncc2F)nn1 (stereo not drawn) [Compound 75, 3-(4-chlorobenzyl)-1-(6-(3-fluoropyridin-4-yl)pyridazin-3-yl)pyrrolidin-2-one] | A ((A) >50%)
< 1000 | O=C1C(Cc2ccc(F)cc2F)CCN1c1ccc(-c2ccncc2)nn1 (stereo not drawn) [Compound 70] | B ((B) 20-50%)
< 1000 | O=C1C(Cc2ccc(Cl)c(F)c2)CCN1c1ccc(-c2ccncc2)nn1 (stereo not drawn) [Compound 62] | B ((B) 20-50%)
